One molecule from patent US6800467B1, “Polypeptides having aminopeptidase activity and nucleic acids encoding same” (Novozymes Biotech, Inc., priority 1997, dated 2004) can be followed below.

This assay concerns the target T1, aminopeptidase II (Aspergillus oryzae, UniProt Q2ULM2).
T1 construct: the first 15 amino acids likely comprise a secretory signal peptide; made in house; host or cells: Aspergillus oryzae JaL142-6 (alkaline protease-deficient), plasmid pEJG19; purified from shake flask supernatant on Q-Sepharose
As to the kind of experiment: Inhibition of the aminopeptidase II with 1,10-phenanthroline, Leu-pNA as substrate. To be noted: pH 7.5. It counts as biochemical. As to the method: Inhibition of the aminopeptidase II with 1,10-phenanthroline was evaluated using Leu-pNA as substrate at pH 7.5 in 50 mM Tris pH 7.5 buffer where hydrolysis was monitored at 405 nm. A 200 mM solution of 1,10-phenanthroline in methanol was prepared. The inhibition reaction was conducted by mixing 100 μl of 2 mg of Leu-pNA per ml of 50 mM sodium phosphate pH 7.5 solution and 10 μl of the 1,10-phenanthroline solution with 100 μl of aminopeptidase II diluted 5-fold in 50 mM sodium phosphate pH 7.5 buffer. A control was run where 10 μl of 20 mM Tris pH 7.6 buffer was used in place of the 1,10-phenantholine solution.

T1 sequence (Q2ULM2 17-496): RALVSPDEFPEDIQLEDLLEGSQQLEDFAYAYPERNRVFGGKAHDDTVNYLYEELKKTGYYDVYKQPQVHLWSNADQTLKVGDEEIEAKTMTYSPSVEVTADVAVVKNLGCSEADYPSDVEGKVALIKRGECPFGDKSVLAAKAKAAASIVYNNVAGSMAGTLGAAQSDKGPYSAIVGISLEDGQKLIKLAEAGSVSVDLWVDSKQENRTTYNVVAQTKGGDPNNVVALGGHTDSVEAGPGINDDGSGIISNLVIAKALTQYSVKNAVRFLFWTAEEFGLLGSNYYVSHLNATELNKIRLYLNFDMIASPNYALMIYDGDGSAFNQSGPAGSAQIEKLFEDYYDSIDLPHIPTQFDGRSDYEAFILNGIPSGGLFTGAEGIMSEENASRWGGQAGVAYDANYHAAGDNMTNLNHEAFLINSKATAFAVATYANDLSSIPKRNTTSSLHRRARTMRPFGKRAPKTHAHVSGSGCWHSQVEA

In the case of `c1cnc2c(c1)ccc1cccnc12` [1,10-phenanthroline], the “Inhibition of the aminopeptidase II” value (Leu-pNA as substrate, 10 μl of 200 mM 1,10-phenanthroline in methanol) is “inhibited”. In addition, where the note is “control without inhibitor 285 mOD/minute”, the “rate of hydrolysis of Leu-pNA in the presence of 1,10-phenanthroline” value is 21 mOD/minute.
